The values that follow come from US10562912B2 (C&C Research Laboratories, priority 2013, dated 2020).

Common to all, as to format: cell-based
The target in one assay is T1, STAT3 (Homo sapiens, UniProt P40763).
T1 construct: plasmid pSTAT3-TA-luc), which contains a stably operating STAT3 promoter; endogenous in cells
The assay is described as follows: STAT3 reporter gene assay (luciferase), LNCaP stable cell line (pSTAT3-TA-luc), IL-6 stimulation. The method in brief:
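LNCaP cells stably carrying pSTAT3-TA-luc, in RPMI1640 with 3% DCC-FBS, were treated with compound and then stimulated with 10 ng/mL IL-6 for 24–48 h at 37 °C. Luciferase activity was measured in lysates. A parallel plate measured viability by CellTiter-Glo, with stimulated 0.1% DMSO wells as the positive control.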
(In general: Reporter assays use an easily measured gene product as a stand-in for the process of interest.)

A further assay deals with MDA-MB-231. The assay is described as follows: Cell growth inhibition assay, breast cancer cell line MDA-MB-231. Particulars: Homo sapiens; MDA-MB-231 breast cancer cell line, 5,000 cells/well.
A further assay concerns LNCaP. The assay is described as follows: Cell growth inhibition assay, prostate cancer cell line LNCaP (medium with 10 ng/mL IL-6). Particulars: Homo sapiens, medium supplemented with 10 ng/mL of IL-6, 10,000 cells/well.

T1 sequence (P40763 whole entry): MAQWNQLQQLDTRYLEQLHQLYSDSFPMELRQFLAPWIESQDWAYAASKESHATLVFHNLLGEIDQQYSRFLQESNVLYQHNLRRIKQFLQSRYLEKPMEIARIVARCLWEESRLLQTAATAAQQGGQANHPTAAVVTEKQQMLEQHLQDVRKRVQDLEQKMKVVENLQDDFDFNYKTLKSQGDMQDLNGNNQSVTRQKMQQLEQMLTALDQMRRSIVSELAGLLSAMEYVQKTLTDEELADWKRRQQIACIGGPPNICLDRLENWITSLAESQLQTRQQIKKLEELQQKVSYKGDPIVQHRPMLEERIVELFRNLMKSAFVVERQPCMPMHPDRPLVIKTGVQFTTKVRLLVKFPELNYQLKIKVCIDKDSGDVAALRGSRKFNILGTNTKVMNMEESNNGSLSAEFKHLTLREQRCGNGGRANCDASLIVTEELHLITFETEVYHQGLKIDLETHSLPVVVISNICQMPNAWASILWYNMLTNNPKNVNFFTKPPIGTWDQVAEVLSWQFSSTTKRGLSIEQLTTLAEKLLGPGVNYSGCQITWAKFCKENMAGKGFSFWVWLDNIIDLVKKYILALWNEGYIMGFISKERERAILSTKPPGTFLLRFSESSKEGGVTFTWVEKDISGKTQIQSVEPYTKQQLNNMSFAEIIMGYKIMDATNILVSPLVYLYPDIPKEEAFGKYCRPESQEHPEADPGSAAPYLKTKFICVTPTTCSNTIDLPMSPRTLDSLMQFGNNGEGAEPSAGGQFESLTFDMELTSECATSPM

On to `CC(C)(c1cccc(CN2CCNCC2)c1)c1cc(Br)cc(NC(=O)c2cc3ccc(NS(C)(=O)=O)cc3[nH]2)c1` [Example 119, N-(3-bromo-5-(2-(3-(piperazin-1-ylmethyl)phenyl)propan-2-yl)phenyl)-6-(methylsulfonamido)-1H-indole-2-carboxamide], for which the figures for the IC50 against STAT3, in the assay on MDA-MB-231 and with LNCaP were over 10 µM, 6.1 µM and over 10 µM, respectively.
Consider `CC(C)(c1cccc(C#N)c1)c1cccc(NC(=O)c2cc3cc(NS(C)(=O)=O)ccc3s2)c1` [Example 224, N-(3-(2-(3-cyanophenyl)propan-2-yl)phenyl)-5-(methylsulfonamido)benzo[b]thiophene-2-carboxamide], for which the figures for the IC50 at STAT3, in the assay on MDA-MB-231 and with LNCaP were 0.26 µM, 0.033 µM and 0.27 µM, respectively.
For `COc1cc2cc(C(=O)Nc3cccc(-c4ccc(F)cc4F)c3)[nH]c2cc1NS(C)(=O)=O` [Example 236, N-(2′,4′-difluoro-[1,1′-biphenyl]-3-yl)-5-methoxy-6-(methylsulfonamido)-1H-indole-2-carboxamide], in that order: 0.31 µM, 0.41 µM and 2.7 µM.
With `CS(=O)(=O)Nc1ccc2sc(C(=O)Nc3cccc(-c4ccc(F)cc4F)c3)cc2c1` [Example 237, N-(2′,4′-difluoro-[1,1′-biphenyl]-3-yl)-5-(methylsulfonamido)benzo[b]thiophene-2-carboxamide], the concentration for half-maximal inhibition (IC50) (commonly the concentration needed to halve the response being measured) at STAT3 worked out at 0.11 µM; in the assay on MDA-MB-231 it was 0.01 µM; in the assay with LNCaP, 0.61 µM.
Regarding `CS(=O)(=O)Nc1ccc2oc(C(=O)Nc3cccc(-c4ccc(F)cc4F)c3)cc2c1` [Example 238, N-(2′,4′-difluoro-[1,1′-biphenyl]-3-yl)-5-(methylsulfonamido)benzofuran-2-carboxamide], the figures for the IC50 against STAT3, with MDA-MB-231 and with LNCaP were 0.27 µM, 0.55 µM and 2.4 µM, respectively.
For `O=C(Nc1cccc(-c2ccc(F)cc2F)c1)c1cc2cc(OC(F)(F)F)ccc2[nH]1` [Example 239, N-(2′,4′-difluoro-[1,1′-biphenyl]-3-yl)-5-(trifluoromethoxy)-1H-indole-2-carboxamide], in that order: over 10 µM, over 10 µM and 8.3 µM.
`CS(=O)(=O)c1ccc2cc(C(=O)Nc3cccc(-c4ccc(F)cc4F)c3)[nH]c2c1` [Example 240, N-(2′,4′-difluoro-[1,1′-biphenyl]-3-yl)-6-(methylsulfonyl)-1H-indole-2-carboxamide]: the concentration for half-maximal inhibition (IC50) against STAT3, in the assay on MDA-MB-231 and in the assay on LNCaP was over 10 µM throughout.
For `Cc1c(C(=O)Nc2cccc(-c3ccc(F)cc3F)c2)sc2cc(NS(C)(=O)=O)ccc12` [Example 241, N-(2′,4′-difluoro-[1,1′-biphenyl]-3-yl)-3-methyl-6-(methylsulfonamido)benzo[b]thiophene-2-carboxamide], the IC50 came to 1.8 µM at STAT3, 2.7 µM with MDA-MB-231 and 5.4 µM with LNCaP.
Consider `CS(=O)(=O)Nc1ccc2cc(C(=O)Nc3cccc(-c4ccc(F)cc4F)c3)sc2c1` [Example 242, N-(2′,4′-difluoro-[1,1′-biphenyl]-3-yl)-6-(methylsulfonamido)benzo[b]thiophene-2-carboxamide], for which the 50% inhibitory concentration (IC50) against STAT3 was 0.96 µM; in the assay on MDA-MB-231, 0.54 µM; in the assay on LNCaP, 4 µM.
For `Cc1c(C(=O)Nc2cccc(-c3ccc(F)cc3F)c2)sc2ccc(NS(C)(=O)=O)cc12` [Example 243, N-(2′,4′-difluoro-[1,1′-biphenyl]-3-yl)-3-methyl-5-(methylsulfonamido)benzo[b]thiophene-2-carboxamide] the same measures were 7.2 µM, 1.6 µM and 6.4 µM.
`CC(=O)c1cc(NC(=O)c2cc3ccc(NS(C)(=O)=O)cc3[nH]2)cc(-c2ccc(F)cc2F)c1` [Example 245, N-(5-acetyl-2′,4′-difluoro-[1,1′-biphenyl]-3-yl)-6-(methylsulfonamido)-1H-indole-2-carboxamide]: the half-maximal inhibitory concentration (IC50) on STAT3 worked out at 1.4 µM; in the assay with MDA-MB-231 it was 2.6 µM; in the assay on LNCaP, 4.9 µM.
For the compound `CS(=O)(=O)Nc1ccc2cc(C(=O)Nc3cc(-c4ccc(F)cc4F)c4cn[nH]c4c3)[nH]c2c1` [Example 246, N-(4-(2,4-difluorophenyl)-1H-indazol-6-yl)-6-(methylsulfonamido)-1H-indole-2-carboxamide], the figures for the IC50 on STAT3, with MDA-MB-231 and in the assay on LNCaP were 8.4 µM, 3.5 µM and 9.2 µM, respectively.
Turning to `CNS(=O)(=O)Nc1ccc2cc(C(=O)Nc3cccc(-c4ccccc4C(F)(F)F)c3)[nH]c2c1` [Example 269], the values for the IC50 on STAT3, in the assay on MDA-MB-231 and with LNCaP were 2.3 µM, 2.1 µM and 4.1 µM, respectively.
For `COc1cc2cc(C(=O)Nc3cc(Br)cc(-c4ccc(F)cc4F)c3)[nH]c2cc1NS(C)(=O)=O` [Example 303, N-(5-bromo-2′,4′-difluoro-[1,1′-biphenyl]-3-yl)-5-methoxy-6-(methylsulfonamido)-1H-indole-2-carboxamide] the same measures were 0.23 µM, 0.02 µM and 0.72 µM.
For `CS(=O)(=O)c1ccc2cc(C(=O)Nc3cc(Br)cc(-c4ccc(F)cc4F)c3)[nH]c2c1` [Example 304, N-(5-bromo-2′,4′-difluoro-[1,1′-biphenyl]-3-yl)-6-(methylsulfonyl)-1H-indole-2-carboxamide], in that order: 4 µM, 5.3 µM and over 10 µM.
In the case of `CS(=O)(=O)Nc1ccc2oc(C(=O)Nc3cc(Br)cc(-c4ccc(F)cc4F)c3)cc2c1` [Example 306, N-(5-bromo-2′,4′-difluoro-[1,1′-biphenyl]-3-yl)-5-(methylsulfonamido)benzofuran-2-carboxamide], the half-maximal inhibitory concentration (IC50) stood at 0.28 µM on STAT3, 0.37 µM in the assay with MDA-MB-231 and 1.7 µM in the assay with LNCaP.
Consider `CNS(=O)(=O)Nc1ccc2cc(C(=O)Nc3cc(Br)cc(-c4ccc(F)cc4F)c3)[nH]c2c1` [Example 307, N-(5-bromo-2′,4′-difluoro-[1,1′-biphenyl]-3-yl)-6-((N-methylsulfamoyl)amino)-1H-indole-2-carboxamide], for which the half-maximal inhibitory concentration (IC50) stood at 1.1 µM against STAT3, 0.84 µM with MDA-MB-231 and 4.8 µM in the assay with LNCaP.
For `O=C(Nc1cc(Br)cc(-c2ccc(F)cc2F)c1)c1cc2cc(OC(F)(F)F)ccc2[nH]1` [Example 308, N-(5-bromo-2′,4′-difluoro-[1,1′-biphenyl]-3-yl)-5-(trifluoromethoxy)-1H-indole-2-carboxamide] the same measures were 5.6 µM, 8.1 µM and over 10 µM.
For `Cc1c(C(=O)Nc2cc(Br)cc(-c3ccc(F)cc3F)c2)sc2cc(NS(C)(=O)=O)ccc12` [Example 309, N-(5-bromo-2′,4′-difluoro-[1,1′-biphenyl]-3-yl)-3-methyl-6-(methylsulfonamido)benzo[b]thiophene-2-carboxamide] the same measures were 1.5 µM, 1.2 µM and 5.9 µM.
In the case of `CS(=O)(=O)Nc1ccc2cc(C(=O)Nc3cc(Br)cc(-c4ccc(F)cc4F)c3)sc2c1` [Example 310, N-(5-bromo-2′,4′-difluoro-[1,1′-biphenyl]-3-yl)-6-(methylsulfonamido)benzo[b]thiophene-2-carboxamide], the IC50 turned out to be 0.8 µM against STAT3, 0.39 µM in the assay with MDA-MB-231 and 3.2 µM in the assay on LNCaP.
On to `Cc1c(C(=O)Nc2cc(Br)cc(-c3ccc(F)cc3F)c2)sc2ccc(NS(C)(=O)=O)cc12` [Example 311, N-(5-bromo-2′,4′-difluoro-[1,1′-biphenyl]-3-yl)-3-methyl-5-(methylsulfonamido)benzo[b]thiophene-2-carboxamide], for which the IC50 worked out at 5.7 µM against STAT3, 1 µM in the assay with MDA-MB-231 and 6.7 µM with LNCaP.
For the compound `CS(=O)(=O)Nc1ccc2cc(C(=O)Nc3cc(F)cc(-c4ccc(F)cc4F)c3)[nH]c2c1` [Example 312, 6-(methylsulfonamido)-N-(2′,4′,5-trifluoro-[1,1′-biphenyl]-3-yl)-1H-indole-2-carboxamide], the figures for the half-maximal inhibitory concentration (IC50) against STAT3, in the assay on MDA-MB-231 and with LNCaP were 0.24 µM, 0.22 µM and 1.3 µM, respectively.
On to `CS(=O)(=O)Nc1ccc2cc(C(=O)Nc3cc(-c4ccc(F)cc4F)cc(C(F)(F)F)c3)[nH]c2c1` [Example 313, N-(2′,4′-difluoro-5-(trifluoromethyl)-[1,1′-biphenyl]-3-yl)-6-(methylsulfonamido)-1H-indole-2-carboxamide], for which the IC50 worked out at 3.6 µM against STAT3, 0.14 µM in the assay with MDA-MB-231 and 3.7 µM in the assay with LNCaP.
For `COc1cc(NC(=O)c2cc3ccc(NS(C)(=O)=O)cc3[nH]2)cc(-c2ccc(F)cc2F)c1` [Example 314, N-(2′,4′-difluoro-5-methoxy-[1,1′-biphenyl]-3-yl)-6-(methylsulfonamido)-1H-indole-2-carboxamide], in that order: 4.5 µM, 0.37 µM and 3.7 µM.
For the compound `COc1cc(NC(=O)c2sc3cc(NS(C)(=O)=O)ccc3c2C)cc(-c2ccc(F)cc2F)c1` [Example 316, N-(2′,4′-difluoro-5-methoxy-[1,1′-biphenyl]-3-yl)-3-methyl-6-(methylsulfonamido)benzo[b]thiophene-2-carboxamide], the IC50 is 3.6 µM against STAT3, 4.6 µM in the assay on MDA-MB-231 and 7 µM with LNCaP.
For `COc1cc(NC(=O)c2cc3cc(NS(C)(=O)=O)ccc3s2)cc(-c2ccc(F)cc2F)c1` [Example 317, N-(2′,4′-difluoro-5-methoxy-[1,1′-biphenyl]-3-yl)-5-(methylsulfonamido)benzo[b]thiophene-2-carboxamide], in that order: 0.28 µM, 0.019 µM and 0.37 µM.
